Results on three molecules are retold here after US20110269782A1, “USE OF NMDA ACTIVITY ENHANCERS TO TREAT HYPERSOMNIA, REDUCED WAKEFULNESS OR REDUCED VIGILANCE” (priority 2008, published 2011).

The structures appear in SMILES notation.

The conditions of assay [1]: 30 mg/kg, cited from earlier work.
Another assay has as its system rats. As to the kind of experiment: Rat sleep parameters by EEG/EMG telemetry (WAKE, SWS, REM). The class given is in vivo. How it is done: In the above experiment rats implanted with a two channel telemetry transmitter to record EEG and EMG simultaneously were dosed with either Merck 1 (nanosuspension 3 mg/kg; 5 ml/kg; p.o.) or vehicle (1.4% W/V hydroxypropylmethylcellulose 0.2% W/V sodium docusate; p.o.) at light on-set in a cross-over design. EEG and EMG recordings were collected for at least 12 hours. Data was converted with LoadDSI.s2s and BatchEEGpower2.s2s scripts (CED) and every 12 s epoch was automatically classified as either WAKE, SWS or REM (PS) sleep with Modulus analysis of sleep v7.xlt. Statistical analysis was done with Student's t-test for paired data. REM latency was defined as the first>1 min REM bout.
Similar data is shown for D-amino acid oxidase inhibitor 4H-furo[3,2-b]pyrrole-5-carboxylic acid (Merck 2) in FIG. 3 and D-serine in FIG. 4 at 100 mg/kg. In this experiment rats implanted with a two channel telemetry transmitter to record EEG and EMG simultaneously were dosed with either drug (30, 100, 300 mg/kg d-serine or 25 mg/kg Merck 2) or vehicle (water or 0.5% MC) intraperitoneally at light on-set in a cross-over design. EEG and EMG recordings were collected for at least 12 hours. Data was converted with LoadDSI.s2s and BatchEEGpower2.s2 s scripts (CED) and every 12 s epoch was automatically classified as either WAKE, SWS or REM (PS) sleep with Modulus analysis of sleep v5 REM incl entries.XLT. Preliminary statistical analysis was done with Student's t-test for paired data. Significance level p<0.05.
(§1) Rats implanted with a two channel telemetry transmitter to record EEG and EMG simultaneously were dosed acutely with either Merck 3 (5 mg/kg; i.p.) or vehicle (distilled water; i.p.) at light onset in a cross-over design. EEB and EMG recordings were collected for at least 12 hours. Data was converted with LoadDSI.s2s and BatchEEGpower2.s2s scripts (CED) and every 12 s epoch was automatically classified as either WAKE, SWS or REM (PS) sleep and Modulus analysis of sleep v7 REM incl entries and tot.xlt. Preliminary statistical analysis was done with Student's t-test for paired data. Significance level p<0.05.
as §1, with “3 (25” for “3 (5”, “design. EEG” for “design. EEB”, “sleep with” for “sleep and”, “sleep v6” for “sleep v7”

Setting [2] is: 25 mg/kg i.p., first four hours.

Regarding `O=C(N[C@@H](c1ccccc1)[C@@H]1CCCCN1)c1cccc(C(F)(F)F)c1Cl` [SSR504734], the “sleep parameters 24 h after drug challenge” value in assay [1] (24 h after drug challenge) is on record as “returned to control levels”. The duration of wakefulness result in assay [1] (effect only for the first two hours) is reported as “increased”. In assay [1], the “latency time to onset of the first episode of PS” value is reported as “increased latency time” and the “paradoxical sleep (PS)” value is reported as “long-lasting reduction”.

For `O=C(O)c1cc2sccc2[nH]1` [Merck 3, 4H-thieno[3,2-b]pyrrole-5-carboxylic acid], the “latency to REM sleep” value in the assay on rats (5 mg/kg i.p.) was “significantly increased”. Moreover, the “bout duration of SWS” value in the assay with rats (5 mg/kg i.p., 7 to 12 h time period) is listed as “significantly reduced”. In addition, the time spent awake entry in the assay with rats (5 mg/kg i.p., first four hours after dosing) is “significantly increased”. Also, in the assay with rats (25 mg/kg i.p.), the “latency to REM” value is reported as “unaltered” and the “latency to SWS” value is recorded as “unaltered”. The “wakefulness compared to the control” value with rats (25 mg/kg i.p., first 4 h) is on record as “significantly more awake”. For the same molecule, in the assay with rats (setting [2]), the “time spent in REM” value is on record as “decrease” and the “time spent in SWS” value was “decrease”.

In the case of `O=C(NCC1(CC2CC2)CCC(S(=O)(=O)CC2CC2)CC1)c1ccc(Cl)cc1Cl` (centres unmarked) [Merck 1, 2,4-dichloro-N-(4-cyclopropylmethane-sulfonyl-1-cyclopropylmethylcyclohexylmethyl)benzamide], the REM latency entry in the assay on rats (3 mg/kg p.o.) is “significant increase”. Further, in the assay with rats (3 mg/kg p.o., significant), the “decrease in REM sleep (mean±SEM)” value stood at 54±7%, the “decrease in the number of entries into REM” value stood at 45±9% and the “decrease in the number of entries into SWS” value amounted to 26±8%. Also, the “increase in time spent in WAKE” value in the assay on rats (3 mg/kg p.o., trend, p=0.06) was 93±43%.
